Assay [1] relates to insect NaV channels (cockroach DUM neurons). The experiment in a line: Whole-cell patch-clamp, NaV channel currents. It counts as cell-based, American cockroach (Periplaneta americana). On the technique in general: In patch-clamp work, channel activity is measured electrically.
The test system of the next assay is NaV channels. The following applies: cited from earlier work.

Structures are written as SMILES. “Also recorded” adds a separate entry of the source.

As to `NC1=N[C@H](O)[C@H]2[C@H]3O[C@]4(O)O[C@@H]([C@@H](O)[C@@]2(N1)[C@@H]4O)[C@]3(O)CO` [TTX, tetrodotoxin], the “inhibition of INa by TTX” value in assay [1] is given as “complete INa inhibition; also recorded: Complete block of INa”. In the assay on NaV channels, the “effect on peak INa” value is “reduce peak INa”.

The values are drawn from article PMC3654253 (Biochemical pharmacology, 2013).
